Laboratory results published in patent US9126933B2, “Soft PDE4 inhibitors” (Amakem NV, priority 2011, dated 2015).
pIC50: −log10 of the molar value. Values after ≈ are worked out from the molar mass of the structure shown.

Key:
recombinant PDE4D2 = biological target: T1, recombinant PDE4D2 (Homo sapiens, UniProt Q08499); assay: PDE4 inhibitory activity screening, PDE4D2 (HTRF, cAMP substrate); type: biochemical; conditions: 40 nM cAMP, 30 minutes, room temperature
T1 construct: host or cells: Sf9 insect cells
T1 sequence (Q08499 303-809 limits assumed): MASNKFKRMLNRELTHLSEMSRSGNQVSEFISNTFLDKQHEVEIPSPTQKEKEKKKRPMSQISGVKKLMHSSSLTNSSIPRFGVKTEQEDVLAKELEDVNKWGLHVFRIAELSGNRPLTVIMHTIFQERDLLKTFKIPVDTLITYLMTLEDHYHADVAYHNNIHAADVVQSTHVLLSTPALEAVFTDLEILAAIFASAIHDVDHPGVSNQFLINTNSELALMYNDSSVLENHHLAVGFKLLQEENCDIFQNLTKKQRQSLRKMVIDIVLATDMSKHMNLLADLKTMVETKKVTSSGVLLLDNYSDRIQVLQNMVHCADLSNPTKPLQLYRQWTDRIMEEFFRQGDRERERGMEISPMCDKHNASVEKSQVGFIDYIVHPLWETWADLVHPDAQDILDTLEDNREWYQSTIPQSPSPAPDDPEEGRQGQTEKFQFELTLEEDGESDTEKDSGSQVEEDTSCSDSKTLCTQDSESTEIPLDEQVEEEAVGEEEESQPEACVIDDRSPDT
Method: (§1) Various concentrations of the test compounds were incubated with recombinant PDE4B1 or PDE4D2 (isolated from Sf9 cells), using 40 nM cAMP as enzyme substrate. Incubation time was set to 30 minutes. The reaction was carried out at room temperature. At the end of the incubation time, residual cAMP concentration was determined, using HTRF as detection method.
(§2) The IC50 values (concentration causing a half-maximal inhibition of control specific activity) and Hill coefficients (nH) were determined by non-linear regression analysis of the inhibition curves generated with mean replicate values using Hill equation curve fitting (Y=D+[(A−D)/(1+(C/C50)nH)], where Y=specific activity, D=minimum specific activity, A=maximum specific activity, C=compound concentration, C50=IC50 and nH=slope factor).

recombinant PDE4B1 = biological target: T2, recombinant PDE4B1 (Homo sapiens, UniProt Q07343); assay: PDE4 inhibitory activity screening, PDE4B1 (HTRF, cAMP substrate); type: biochemical; conditions: 40 nM cAMP, 30 minutes, room temperature
T2 construct: host or cells: Sf9 insect cells
T2 sequence (Q07343 whole entry): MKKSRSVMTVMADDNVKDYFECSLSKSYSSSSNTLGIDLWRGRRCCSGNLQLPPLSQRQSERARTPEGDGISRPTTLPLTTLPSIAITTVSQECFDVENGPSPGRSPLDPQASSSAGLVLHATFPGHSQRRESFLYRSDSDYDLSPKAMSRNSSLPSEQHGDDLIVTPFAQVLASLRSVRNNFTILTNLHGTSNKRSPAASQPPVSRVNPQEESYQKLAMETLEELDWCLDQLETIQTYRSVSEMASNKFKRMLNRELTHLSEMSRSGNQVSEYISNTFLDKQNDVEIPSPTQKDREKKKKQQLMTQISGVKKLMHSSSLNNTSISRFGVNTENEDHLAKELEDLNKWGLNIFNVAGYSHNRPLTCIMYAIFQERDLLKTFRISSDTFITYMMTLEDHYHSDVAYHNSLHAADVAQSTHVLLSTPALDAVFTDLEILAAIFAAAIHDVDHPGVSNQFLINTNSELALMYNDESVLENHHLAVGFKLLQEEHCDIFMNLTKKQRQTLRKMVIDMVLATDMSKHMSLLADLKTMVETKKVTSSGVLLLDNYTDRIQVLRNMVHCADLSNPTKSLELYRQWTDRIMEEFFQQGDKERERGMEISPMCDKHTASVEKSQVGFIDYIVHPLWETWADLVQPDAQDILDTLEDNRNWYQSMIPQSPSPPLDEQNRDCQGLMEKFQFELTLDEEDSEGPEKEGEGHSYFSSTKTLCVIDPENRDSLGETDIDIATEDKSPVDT
Method: as §1, §2

[1] = Stability assay in human plasma; type: in vitro ADME; conditions: 1 μM compound
Method: Compounds are incubated at a concentration of 1 μM in rat (mice/rabbit/dog/rabbit) or human plasma. Samples are taken at fixed time points and the remnant of compound is determined by LC-MS/MS after protein precipitation. Half life of the compound is expressed in minutes.

[2] = Solubility in aqueous solution (PBS pH 7.4); type: physicochemical; conditions: phosphate buffer saline (PBS), pH 7.4, aqueous buffer, kinetic from dmso stock; PBS pH7.4, 24 h, room temperature, theoretical concentration 200 μM
Method: Using a 10 mM stock solution of each compound in 100% DMSO, dilutions were prepared to a theoretical concentration of 200 μM in both phosphate buffer saline (PBS), pH7.4 and in 100% DMSO (as reference). Solutions (triplicates) were incubated at room temperature for 24 h on a shaker at 100 rpm. The solutions were then centrifugated at 13000 rpm for 30 min and the supernatant was further diluted to 2 μM in methanol. The supernatant was then analyzed by LC-MSMS. The concentration of compound in PBS supernatant was determined by comparing the MS peak area with that of the reference solution in DMSO.

[3] = Stability assay in aqueous humor; type: in vitro ADME; conditions: rabbit aqueous humor, 1 μM compound
Method: Compounds are incubated at a concentration of 1 μM in human or animal (e.g. rabbit) aqueous humor (AH). Samples are taken at fixed time points and the remnant of compound is determined by LC-MS/MS after protein precipitation.

[4] = Membrane permeability, Pampa assay; conditions: for Papp at 5 h, 10 μM: PAMPA, pH 7.4; for Papp (Pampa; 10^−6 cm/s): 10 μM in 10 mM PBS pH=7.4, 2% DMSO, 5 hours, room temperature
Method: (§3) The capacity of compounds of the invention to cross a lipophilic membrane was evaluated in a Pampa assay, using an assay plate containing structured layers of phospholipids supported on a PVDF filter (Benton Dickinson). […] Each compound was tested in triplicate and was prepared as a 10 μM solution in 10 mM PBS pH=7.4 buffer containing 2% DMSO. Compounds were dosed in the donor chamber of the assay plate and incubated for 5 hours, at room temperature. Additionally, an equilibrium solution plate containing 6 μM of test compound was prepared. Test compound concentration in donor and acceptor chamber and in the equilibrium plate was quantified using HPLC-MS/MS. The subsequently calculated permeability coefficients were reported as Papp.

in vitro = conditions: PAMPA, pH 7.4
Method: as §3

[5] = Stability towards drug metabolizing enzymes in lung S9; type: in vitro ADME; conditions: lung S9 (from smokers); human lung S9, 1 μM compound, cofactors NADPH, UDPGA, PAPS, GSH
Method: A 1 μM solution of the compounds is incubated with a reaction mixture containing lung S9 (from smokers) as well as the cofactors NADPH, UDPGA, PAPS and GSH. Samples are collected at 0, 15, 30 and 60 minutes post incubation. Negative control samples incubated with […] and S9 fraction in the absence of cofactors are run in parallel. By using LC-MS/MS analysis, the percent of compounds remaining at each time point, the metabolic half-life of the compounds (expressed in minutes) and the metabolic half-life of the control compounds are determined.

pIC50 (recombinant PDE4D2) | pIC50 (recombinant PDE4B1) | half-life at 1 μM [1] | solubility at 24 h [2] | half-life at 1 μM [3] | Papp at 5 h, 10 μM [4] | Papp at 5 h, 10 μM (in vitro) | Compound | Papp (Pampa; 10^−6 cm/s) [4] | half-life at 1 μM [5]
> 8.00 | 7.00 to 8.00 | < 15 min |  |  |  |  | CN(C)CCOC(=O)c1ccc(SCCCOc2cc(C(=O)Nc3c(Cl)cncc3Cl)ccc2OC(F)F)cc1 [Compound 26] |  | 
 |  |  | < 10 µM |  |  |  | O=C(Nc1c(Cl)cncc1Cl)c1ccc(OC(F)F)c(OCC2CC2)c1 [Roflumilast, reference compound] |  | 
< 6.30 | 7.00 to 8.00 |  | 10 to 100 µM (≈ 4.83 to 48.3 µg/mL) | > 120 min |  |  | COC(=O)c1ccc(Oc2cc(C(=O)Nc3c(Cl)cncc3Cl)ccc2OC(F)F)cc1 [Compound 21, Methyl 4-(5-((3,5-dichloropyridin-4-yl)carbamoyl)-2-(difluoromethoxy)phenoxy)benzoate] |  | 
6.30 to 7.00 | 7.00 to 8.00 | 15 to 60 min |  | 60 to 120 min | 79 nm/s |  | CN(C)CCOC(=O)c1ccc(Oc2cc(C(=O)Nc3c(Cl)cncc3Cl)ccc2OC(F)F)cc1 [Compound 28] |  | 
 |  |  |  |  |  | 0.08 nm/s | COC(=O)[C@H]1[C@H]2C[C@@H]3c4[nH]c5cc(OC)ccc5c4CCN3C[C@H]2C[C@@H](OC(=O)c2cc(OC)c(OC)c(OC)c2)[C@@H]1OC [Reserpine] |  | 
7.00 to 8.00 | 7.00 to 8.00 |  |  |  |  |  | O=C(Nc1c(Cl)cncc1Cl)c1ccc(OC(F)F)c(OCCCSc2ccc(C(=O)OCCO)cc2)c1 [Compound 25] |  | 
6.30 to 7.00 | 6.30 to 7.00 |  |  |  |  |  | COC(=O)c1ccc(SCCCOc2cc(C(=O)Nc3c(Cl)cncc3Cl)ccc2OC(F)F)cc1 [Compound 18] |  | 
6.30 to 7.00 | 6.30 to 7.00 |  | < 10 µM |  |  |  | COC(=O)c1cccc(SCCCOc2cc(C(=O)Nc3c(Cl)cncc3Cl)ccc2OC(F)F)c1 [Compound 17] |  | 
> 8.00 | > 8.00 | 15 to 60 min | > 100 µM |  |  |  | O=C(CCCCOc1cc(C(=O)Nc2c(Cl)cncc2Cl)ccc1OC(F)F)OCCN1CCOCC1 [Compound 5] |  | 
7.00 to 8.00 | 7.00 to 8.00 | 15 to 60 min | > 100 µM | 60 to 120 min | 56 nm/s |  | COC(=O)CNCCCOc1cc(C(=O)Nc2c(Cl)cncc2Cl)ccc1OC(F)F [Compound 15] |  | 
7.00 to 8.00 | > 8.00 | 15 to 60 min |  |  |  |  | O=C(CCCCOc1cc(C(=O)Nc2c(Cl)cncc2Cl)ccc1OC(F)F)OCC1CCCO1 (centres unmarked) [Compound 6] |  | 
7.00 to 8.00 | > 8.00 | 15 to 60 min | > 100 µM |  | 92 nm/s |  | COCCOC(=O)CCCCOc1cc(C(=O)Nc2c(Cl)cncc2Cl)ccc1OC(F)F [Compound 7] |  | 
6.30 to 7.00 | 7.00 to 8.00 |  | < 10 µM |  |  |  | O=C(CCCCOc1cc(C(=O)Nc2c(Cl)cncc2Cl)ccc1OC(F)F)OCc1ccccc1 [Compound 4] |  | 
7.00 to 8.00 | 7.00 to 8.00 |  |  |  |  |  | O=C(Nc1c(Cl)cncc1Cl)c1ccc(OC(F)F)c(OCCCSc2cccc(C(=O)OCCO)c2)c1 [Compound 23] |  | 
7.00 to 8.00 | > 8.00 |  |  |  | 51 nm/s |  | O=C(Nc1c(Cl)cncc1Cl)c1ccc(OC(F)F)c(Oc2cccc(C(=O)OCCO)c2)c1 [Compound 29] |  | 
< 6.30 | < 6.30 |  |  |  | 0.2 nm/s |  | O=C(O)CNCCCOc1cc(C(=O)Nc2c(Cl)cncc2Cl)ccc1OC(F)F [Met3, 2-[(3-{5-[(3,5-dichloropyridin-4-yl)carbamoyl]-2-(difluoromethoxy)phenoxy}propyl)amino]acetic acid] |  | 
7.00 to 8.00 | > 8.00 | < 15 min |  |  | 53 nm/s |  | CN(C)CCOC(=O)c1cccc(Oc2cc(C(=O)Nc3c(Cl)cncc3Cl)ccc2OC(F)F)c1 [Compound 30] |  | 
7.00 to 8.00 | 7.00 to 8.00 |  |  | > 120 min | 23 nm/s |  | O=C(Nc1c(Cl)cncc1Cl)c1ccc(OC(F)F)c(Oc2ccc(C(=O)OCCO)cc2)c1 [Compound 27] |  | 
7.00 to 8.00 | 7.00 to 8.00 | < 15 min | 10 to 100 µM (≈ 5.2 to 52 µg/mL) |  | 30 nm/s |  | CN(C)CCOC(=O)CCCCOc1cc(C(=O)Nc2c(Cl)cncc2Cl)ccc1OC(F)F [Compound 9] |  | 
6.30 to 7.00 | 7.00 to 8.00 | < 15 min | < 10 µM |  |  |  | O=C(CCCCOc1cc(C(=O)Nc2c(Cl)cncc2Cl)ccc1OC(F)F)Oc1ccccc1F [Compound 3] |  | 
> 8.00 | > 8.00 | < 15 min | > 100 µM |  | 37 nm/s |  | O=C(CCCCOc1cc(C(=O)Nc2c(Cl)cncc2Cl)ccc1OC(F)F)NCCSC1CCOC1=O (centres unmarked) [Compound 10] |  | 
7.00 to 8.00 | 7.00 to 8.00 |  | 10 to 100 µM (≈ 4.91 to 49.1 µg/mL) |  |  |  | CCCOC(=O)CCCCOc1cc(C(=O)Nc2c(Cl)cncc2Cl)ccc1OC(F)F [Compound 1, propyl 5-[5-{[(3,5-dichloropyridin-4-yl)amino]carbonyl}-2-(difluoromethoxy)phenoxy]pentanoate] |  | 
7.00 to 8.00 | 7.00 to 8.00 | < 15 min | 10 to 100 µM (≈ 5.25 to 52.5 µg/mL) |  |  |  | O=C(CCCCOc1cc(C(=O)Nc2c(Cl)cncc2Cl)ccc1OC(F)F)Oc1ccccc1 [Compound 2, phenyl 5-[5-{[(3,5-dichloropyridin-4-yl)amino]carbonyl}-2-(difluoromethoxy)phenoxy]pentanoate] |  | 
7.00 to 8.00 | 7.00 to 8.00 | < 15 min |  |  |  |  | CN(C)CCOC(=O)c1cccc(SCCCOc2cc(C(=O)Nc3c(Cl)cncc3Cl)ccc2OC(F)F)c1 [Compound 24] |  | 
7.00 to 8.00 | > 8.00 | < 15 min | > 100 µM |  | 75 nm/s |  | O=C(CCCCOc1cc(C(=O)Nc2c(Cl)cncc2Cl)ccc1OC(F)F)OCCN1CCCC1 [Compound 8] |  | 
6.30 to 7.00 | 7.00 to 8.00 |  |  |  |  |  | CCOC(=O)c1cccc(Oc2cc(C(=O)Nc3c(Cl)cncc3Cl)ccc2OC(F)F)c1 [Compound 22, Ethyl 3-(5-((3,5-dichloropyridin-4-yl)carbamoyl)-2-(difluoromethoxy)phenoxy)benzoate] |  | 
7.00 to 8.00 | > 8.00 | < 15 min | < 10 µM |  |  |  | COC(=O)Cc1cccc(NCCCOc2cc(C(=O)Nc3c(Cl)cncc3Cl)ccc2OC(F)F)c1 [Compound 16] |  | 

Compound | pIC50 (recombinant PDE4D2) | pIC50 (recombinant PDE4B1) | half-life at 1 μM [1] | solubility at 24 h [2] | half-life at 1 μM [3] | Papp at 5 h, 10 μM [4] | Papp at 5 h, 10 μM (in vitro) | Papp (Pampa; 10^−6 cm/s) [4] | half-life at 1 μM [5]
O=C(Nc1c(Cl)cncc1Cl)c1ccc(OC(F)F)c(OCCCNC2CCOC2=O)c1 (centres unmarked) [Compound 14] | 7.00 to 8.00 | > 8.00 | < 15 min | 10 to 100 µM (≈ 4.9 to 49 µg/mL) |  |  |  | 7.3 10^−6 cm/s | > 60 min
O=C(Nc1c(Cl)cncc1Cl)c1ccc(OC(F)F)c(OCCCCSC2CCOC2=O)c1 (centres unmarked) [Compound 12, N-(3,5-dichloropyridin-4-yl)-4-(difluoromethoxy)-3-{4-[(2-oxotetrahydrofuran-3-yl)thio]butoxy}benzamide] | > 8.00 | > 8.00 | < 15 min | 10 to 100 µM (≈ 5.21 to 52.1 µg/mL) |  |  |  | 2.5 10^−6 cm/s | > 60 min
O=C(Nc1c(Cl)cncc1Cl)c1ccc(OC(F)F)c(OCCCSC2CCOC2=O)c1 (centres unmarked) [Compound 13] | > 8.00 | > 8.00 | < 15 min | 10 to 100 µM (≈ 5.07 to 50.7 µg/mL) |  |  |  | 6.6 10^−6 cm/s | 
O=C(Nc1c(Cl)cncc1Cl)c1ccc(OC(F)F)c(OCCCNC(CCO)C(=O)O)c1 (centres unmarked) [Met2] | < 6.30 | < 6.30 |  |  |  | 0.2 nm/s |  |  | 
O=C(Nc1c(Cl)cncc1Cl)c1ccc(OC(F)F)c(OCCCCNC2CCOC2=O)c1 (centres unmarked) [Compound 11, N-(3,5-dichloropyridin-4-yl)-4-(difluoromethoxy)-3-{4-[(2-oxotetrahydrofuran-3-yl)amino]butoxy}benzamide] | > 8.00 | > 8.00 | < 15 min | 10 to 100 µM (≈ 5.04 to 50.4 µg/mL) |  | 50 nm/s |  |  | > 60 min
O=C(Nc1c(Cl)cncc1Cl)c1ccc(OC(F)F)c(OCCCCNC(CCO)C(=O)O)c1 (centres unmarked) [Met1] | 6.30 to 7.00 | 6.30 to 7.00 |  |  |  | 0.3 nm/s |  |  | 
